For twelve compounds, IC50 results are on record in patent US11306084B2, “Integrin antagonists” (Saint Louis University, priority 2016, dated 2022).

pIC50: −log10 of the molar value.

Common to all, as to assay type: binding
Experiment [1] deals with T1, Recombinant human integrin ανβ6 (Homo sapiens, UniProt P06756+P18564).
T1 construct: purchased R&D Systems 3817-AV
Briefly: Solid Phase Receptor Assay (SPRA) for ανβ6 function. To be noted: plate-bound human LAP; read-out: αvβ6 SPRA IC50. As for the experimental part: E. Solid Phase Receptor Assay (SPRA) for ανβ6 Function
Wells were washed 3 times with 150 μL TBS+, and then 150 μL of blocking buffer (TBS+ with 1% bovine serum albumin, Sigma A7906) was added. The plate was incubated for 1 hr at 37° C., and then washed 3× with TBS+ buffer. […] Compounds were diluted to 20 μM and then 1 μL was added to each well of the plate according to a standard template with each sample repeated in triplicate. After incubation for two hours at room temperature, the plate was washed 3× with 150 μL of TBS+ buffer. To each well, 50 μL of biotinylated anti-αν antibody (R&D Systems, BAF1219) at 0.5 μg/mL in TBS+/0.1% BSA were added and the plate was covered and incubated for 1 hr at room temperature. After washing the plate 3× with 150 μL of TBS+ buffer, 50 μL of streptavidin-conjugated horseradish peroxidase (R&D Systems, DY998) diluted in TBS+ blocking buffer were added to the wells and the plate incubated for 20 min at room temperature. The plate was washed 3× with TBS+ buffer followed by 50 μL of TMB substrate (Sigma T4444) added to each well in the dark and the plate incubated for 10 min at room temperature. 25 μL of 1.0 M phosphoric acid was added as a stop solution and the plates were read at 450 nm using a Spectramax plate reader.

In experiment [2] the target is T2, Recombinant human integrin α5β1 (Homo sapiens, UniProt P05556+P08648).
T2 construct: purchased R&D Systems 3230-A5
T2 sequence (P08648 42-995 limits assumed): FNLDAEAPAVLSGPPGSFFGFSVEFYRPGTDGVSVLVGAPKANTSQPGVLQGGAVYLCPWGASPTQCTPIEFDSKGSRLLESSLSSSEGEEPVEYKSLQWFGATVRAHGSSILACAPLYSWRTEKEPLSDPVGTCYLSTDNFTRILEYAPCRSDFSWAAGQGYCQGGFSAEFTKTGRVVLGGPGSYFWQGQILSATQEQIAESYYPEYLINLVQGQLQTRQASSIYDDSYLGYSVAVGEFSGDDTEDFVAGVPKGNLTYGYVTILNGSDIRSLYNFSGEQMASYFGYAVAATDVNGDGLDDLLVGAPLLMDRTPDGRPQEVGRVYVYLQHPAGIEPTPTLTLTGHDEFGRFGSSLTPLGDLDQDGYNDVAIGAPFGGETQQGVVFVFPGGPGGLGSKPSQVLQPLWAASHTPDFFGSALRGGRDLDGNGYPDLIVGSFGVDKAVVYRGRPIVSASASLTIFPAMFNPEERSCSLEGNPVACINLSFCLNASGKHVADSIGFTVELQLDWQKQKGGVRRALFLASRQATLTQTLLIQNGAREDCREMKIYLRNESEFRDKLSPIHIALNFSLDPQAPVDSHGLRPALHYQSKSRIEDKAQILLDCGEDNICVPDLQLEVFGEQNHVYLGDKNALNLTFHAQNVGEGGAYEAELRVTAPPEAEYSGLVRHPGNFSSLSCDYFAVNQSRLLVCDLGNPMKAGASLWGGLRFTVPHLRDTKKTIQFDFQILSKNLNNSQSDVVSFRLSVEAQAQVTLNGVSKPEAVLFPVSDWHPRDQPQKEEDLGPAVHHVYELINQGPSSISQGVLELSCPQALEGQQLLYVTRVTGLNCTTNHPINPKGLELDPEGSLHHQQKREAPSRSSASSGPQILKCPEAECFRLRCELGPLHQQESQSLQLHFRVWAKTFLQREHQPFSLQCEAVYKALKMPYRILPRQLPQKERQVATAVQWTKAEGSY
T2 sequence (P05556 21-728 limits assumed): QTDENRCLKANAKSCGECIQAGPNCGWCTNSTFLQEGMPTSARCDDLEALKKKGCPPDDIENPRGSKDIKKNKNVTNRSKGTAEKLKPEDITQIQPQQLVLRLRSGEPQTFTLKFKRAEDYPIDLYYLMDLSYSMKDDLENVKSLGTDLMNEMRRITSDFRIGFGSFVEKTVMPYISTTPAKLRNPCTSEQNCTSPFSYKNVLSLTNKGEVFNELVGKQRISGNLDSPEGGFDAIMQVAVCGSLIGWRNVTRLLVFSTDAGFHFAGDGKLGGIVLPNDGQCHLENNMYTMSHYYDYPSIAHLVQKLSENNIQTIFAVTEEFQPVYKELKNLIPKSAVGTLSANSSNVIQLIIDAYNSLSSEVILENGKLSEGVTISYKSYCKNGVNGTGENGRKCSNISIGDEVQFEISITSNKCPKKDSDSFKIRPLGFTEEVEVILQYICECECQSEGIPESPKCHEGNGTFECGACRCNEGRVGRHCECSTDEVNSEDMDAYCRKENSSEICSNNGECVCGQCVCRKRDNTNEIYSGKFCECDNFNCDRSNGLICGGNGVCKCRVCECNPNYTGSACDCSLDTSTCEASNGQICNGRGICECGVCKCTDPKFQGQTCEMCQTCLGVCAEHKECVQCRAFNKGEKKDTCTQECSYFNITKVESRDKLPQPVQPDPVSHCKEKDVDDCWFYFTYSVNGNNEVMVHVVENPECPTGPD
Briefly: Solid Phase Receptor Assay (SPRA) for α5β1 function. To be noted: plate-bound human fibronectin. On the procedure:
A. Solid Phase Receptor Assay (SPRA) for α5β1 Function
Wells were washed 3 times with 150 μL TBS+ and then 150 μL of blocking buffer (TBS+ with 1% bovine serum albumin, Sigma A7906) was added. The plate was incubated for 1 hr at 37° C. and then washed 3× with TBS+ buffer. […] Compounds were diluted to 20 μM and then 1 μL was added to each well of the plate according to a standard template with each sample repeated in triplicate. After incubation for two hours at room temperature, the plate was washed 3× with 150 μL of TBS+ buffer. To each well, 50 μL of biotinylated anti-α5 antibody (R&D Systems, BAF1864) at 0.5 μg/mL in TBS+/0.1% BSA were added and the plate covered and incubated for 1 hr at room temperature. After washing the plate 3× with 150 μL of TBS+ buffer, 50 μL of streptavidin-conjugated horseradish peroxidase (R&D Systems, DY998) diluted in TBS+ blocking buffer were added to the wells and the plate incubated for 20 min at room temperature. The plate was washed 3× with TBS+ buffer followed by 50 μL of room temperature TMB substrate (Sigma, T4444) added to each well in the dark and the plate incubated for 25 min at room temperature. 25 μL of 1.0 M phosphoric acid was added as a stop solution and the plates were read at 450 nm using a Spectramax plate reader.

In experiment [3] the target is T3, Recombinant human integrin ανβ3 (Homo sapiens, UniProt P05106+P06756).
T3 construct: purchased R&D Systems 3050-AV
T3 sequence (P06756 31-992 limits assumed): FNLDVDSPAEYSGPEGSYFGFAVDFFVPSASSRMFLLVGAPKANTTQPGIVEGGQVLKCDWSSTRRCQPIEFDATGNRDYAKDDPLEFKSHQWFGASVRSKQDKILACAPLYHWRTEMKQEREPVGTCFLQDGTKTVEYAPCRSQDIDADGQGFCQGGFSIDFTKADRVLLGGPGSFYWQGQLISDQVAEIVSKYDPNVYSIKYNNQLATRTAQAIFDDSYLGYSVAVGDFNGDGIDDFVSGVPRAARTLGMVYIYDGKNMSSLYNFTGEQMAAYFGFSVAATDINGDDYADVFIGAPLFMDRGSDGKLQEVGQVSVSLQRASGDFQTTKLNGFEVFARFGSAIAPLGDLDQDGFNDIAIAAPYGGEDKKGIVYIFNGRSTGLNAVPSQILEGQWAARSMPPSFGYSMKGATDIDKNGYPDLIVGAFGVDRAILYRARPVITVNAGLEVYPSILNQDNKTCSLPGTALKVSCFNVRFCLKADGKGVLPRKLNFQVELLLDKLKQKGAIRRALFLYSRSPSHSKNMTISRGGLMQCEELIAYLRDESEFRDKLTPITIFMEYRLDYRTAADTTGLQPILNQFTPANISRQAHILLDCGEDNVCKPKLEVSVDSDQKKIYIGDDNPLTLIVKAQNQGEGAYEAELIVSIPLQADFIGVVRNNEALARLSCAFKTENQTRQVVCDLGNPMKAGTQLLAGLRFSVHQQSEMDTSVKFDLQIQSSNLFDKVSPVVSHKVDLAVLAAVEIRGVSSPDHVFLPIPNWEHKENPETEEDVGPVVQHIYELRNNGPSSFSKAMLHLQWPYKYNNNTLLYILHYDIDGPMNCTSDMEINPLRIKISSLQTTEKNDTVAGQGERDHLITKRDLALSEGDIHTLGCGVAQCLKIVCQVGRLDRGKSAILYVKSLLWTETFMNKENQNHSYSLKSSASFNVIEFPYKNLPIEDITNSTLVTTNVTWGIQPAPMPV
T3 sequence (P05106 27-718 limits assumed): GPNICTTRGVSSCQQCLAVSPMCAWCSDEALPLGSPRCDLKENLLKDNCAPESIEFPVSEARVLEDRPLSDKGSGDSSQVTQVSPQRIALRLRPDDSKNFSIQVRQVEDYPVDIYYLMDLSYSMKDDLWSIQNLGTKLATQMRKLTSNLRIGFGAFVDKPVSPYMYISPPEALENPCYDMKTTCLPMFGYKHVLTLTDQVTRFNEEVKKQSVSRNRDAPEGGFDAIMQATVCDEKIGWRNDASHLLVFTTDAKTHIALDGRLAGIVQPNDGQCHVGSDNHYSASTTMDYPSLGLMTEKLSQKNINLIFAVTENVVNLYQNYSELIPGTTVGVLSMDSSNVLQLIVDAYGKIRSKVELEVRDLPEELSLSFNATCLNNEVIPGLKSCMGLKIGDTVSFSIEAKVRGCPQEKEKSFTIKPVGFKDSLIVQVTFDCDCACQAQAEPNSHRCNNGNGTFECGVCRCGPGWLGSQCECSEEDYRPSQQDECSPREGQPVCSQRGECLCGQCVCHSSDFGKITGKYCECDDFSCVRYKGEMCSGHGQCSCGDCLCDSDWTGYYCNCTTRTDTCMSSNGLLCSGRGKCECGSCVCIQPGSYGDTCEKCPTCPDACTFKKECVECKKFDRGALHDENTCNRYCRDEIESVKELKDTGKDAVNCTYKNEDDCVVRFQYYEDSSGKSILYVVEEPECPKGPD
Briefly: Solid Phase Receptor Assay (SPRA) for ανβ3 function. To be noted: plate-bound human vitronectin; read-out: αvβ3 SPRA IC50. As for the experimental part: C. Solid Phase Receptor Assay (SPRA) for ανβ3 Function
(§1) Wells were washed 3 times with 150 μL TBS+ and then 150 μL of blocking buffer (TBS+ with 1% bovine serum albumin, Sigma A7906) was added. The plate was incubated for 1 hr at 37° C. and then washed 3× with TBS+ buffer. […] Compounds were diluted to 20 μM and then 1 μL was added to each well of the plate according to a standard template with each sample repeated in triplicate. After incubation for two hours at room temperature, the plate was washed 3× with 150 μL of TBS+ buffer. To each well, 50 μL of biotinylated anti-αν antibody (R&D Systems, BAF1219) at 0.5 μg/mL in TBS+/0.1% BSA were added and the plate covered and incubated for 1 hr at room temperature. After washing the plate 3× with 150 μL of TBS+ buffer, 50 μL of streptavidin-conjugated horseradish peroxidase (R&D Systems, DY998) diluted in TBS+ blocking buffer were added to the wells and the plate incubated for 20 min at room temperature. The plate was washed 3× with TBS+ buffer followed by 50 μL of TMB substrate (Sigma, T4444) added to each well in the dark and the plate was incubated for 25 min at room temperature. 25 μL of 1.0 M phosphoric acid was added as a stop solution and the plates were read at 450 nm using a Spectramax plate reader.

The target in experiment [4] is T4, Recombinant human integrin ανβ1 (Homo sapiens, UniProt P05556+P06756).
T4 construct: purchased R&D Systems 6579-AV
T4 sequence (P06756 31-992 limits assumed): as the sequence (P06756 31-992 limits assumed) above
T4 sequence (P05556 21-728 limits assumed): as the sequence (P05556 21-728 limits assumed) above
Briefly: Solid Phase Receptor Assay (SPRA) for ανβ1 function. To be noted: plate-bound human fibronectin; read-out: αvβ1 SPRA IC50. On the procedure: B. Solid Phase Receptor Assay (SPRA) for ανβ1 Function
as §1, with “μM and 1 μL” for “μM and then 1 μL”, “was washed 3 with 150” for “was washed 3× with 150”, “BAF1219) at 1 μg/mL in” for “BAF1219) at 0.5 μg/mL in”, “the plate incubated for” for “the plate was incubated for”

T1 sequence (P06756 31-992 limits assumed): as the sequence (P06756 31-992 limits assumed) above
T1 sequence (P18564 22-707 limits assumed): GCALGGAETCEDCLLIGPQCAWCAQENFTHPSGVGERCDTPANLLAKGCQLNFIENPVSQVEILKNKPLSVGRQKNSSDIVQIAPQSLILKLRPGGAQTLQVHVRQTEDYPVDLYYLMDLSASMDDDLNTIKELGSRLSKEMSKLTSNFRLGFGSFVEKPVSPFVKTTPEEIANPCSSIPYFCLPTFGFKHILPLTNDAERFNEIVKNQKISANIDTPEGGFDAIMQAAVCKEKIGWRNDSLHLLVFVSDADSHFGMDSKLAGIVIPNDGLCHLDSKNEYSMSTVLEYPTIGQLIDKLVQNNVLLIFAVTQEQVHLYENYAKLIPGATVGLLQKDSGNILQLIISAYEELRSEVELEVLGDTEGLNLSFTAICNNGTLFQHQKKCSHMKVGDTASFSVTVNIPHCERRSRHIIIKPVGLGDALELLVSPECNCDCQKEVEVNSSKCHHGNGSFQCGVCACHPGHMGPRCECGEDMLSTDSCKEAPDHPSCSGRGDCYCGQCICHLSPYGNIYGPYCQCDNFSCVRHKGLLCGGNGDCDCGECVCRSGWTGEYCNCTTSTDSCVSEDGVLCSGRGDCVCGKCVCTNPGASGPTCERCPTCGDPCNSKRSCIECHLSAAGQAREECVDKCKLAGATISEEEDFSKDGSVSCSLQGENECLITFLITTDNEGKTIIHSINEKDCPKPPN

As for `Cn1nc(CC(CC(=O)O)c2cc(Br)cc(C(C)(C)C)c2)cc1OCCc1ccc2c(n1)NCCC2` (stereo not drawn) [Example 16, 3-(3-bromo-5-tert-butyl-phenyl)-4-(1-methyl-5-(2-(5,6,7,8-tetrahydro-1,8-naphthyridin-2-yl)ethoxy)-1H-pyrazol-3-yl)butanoic Acid], the negative logarithm of the IC50 (pIC50) (as a rule, the IC50 on a negative log10 scale, so that one unit is a factor of ten) in experiment [1] is 7.10; in experiment [2] it was 7.52; in experiment [3], 8.11; in experiment [4] it was 8.52.
Consider `Cn1nc(CC(CC(=O)O)c2cc(C#N)cc(C(C)(C)C)c2)cc1OCCc1ccc2c(n1)NCCC2` (stereo not drawn) [Example 17], for which the negative logarithm of the IC50 (pIC50) was 7.55 in experiment [1], 7.96 in experiment [2], 8.13 in experiment [3] and 8.36 in experiment [4].
`Cn1nc(CC(CC(=O)O)c2cc(C(C)(C)C)cc(C(C)(C)C)c2)cc1OCCc1ccc2c(n1)NCCC2` (stereo not drawn) [Example 18, 3-(3,5-di-tert-butylphenyl)-4-[1-methyl-5-[2-(5,6,7,8-tetrahydro-1,8-naphthyridin-2-yl)ethoxyl]pyrazol-3-yl]butanoic Acid]: the pIC50 in experiment [1] is 6.21; in experiment [2], 8.19; in experiment [3], 7.08; in experiment [4], 8.85.
Taken in the same sequence, the figures for `Cn1nc(CC(CC(=O)O)c2cc(Br)cc(C3(C(F)F)CC3)c2)cc1OCCc1ccc2c(n1)NCCC2` (stereo not drawn) [Example 19, 3-(3-bromo-5-(1-(difluoromethyl)cyclopropyl)phenyl)-4-(1-methyl-5-(2-(5,6,7,8-tetrahydro-1,8-naphthyridin-2-yl)ethoxy)-1H-pyrazol-3-yl)butanoic Acid] were 7.35, 7.82, 8.19 and 8.20.
On to `Cn1nc(CC(CC(=O)O)c2cc(C#N)cc(C3(C(F)F)CC3)c2)cc1OCCc1ccc2c(n1)NCCC2` (stereo not drawn) [Example 20, 3-(3-cyano-5-(1-(difluoromethyl)cyclopropyl)phenyl)-4-(1-methyl-5-(2-(5,6,7,8-tetrahydro-1,8-naphthyridin-2-yl)ethoxy)-1H-pyrazol-3-yl)butanoic Acid], for which the pIC50 in experiment [1] is 7.77; in experiment [2], 8.26; in experiment [3], 8.44; in experiment [4], 8.41.
For the compound `Cn1nc(CC(CC(=O)O)c2cc(F)cc(C3(C(F)F)CC3)c2)cc1OCCc1ccc2c(n1)NCCC2` (stereo not drawn) [Example 21, 3-(3-(1-(difluoromethyl)cyclopropyl)-5-fluorophenyl)-4-(1-methyl-5-(2-(5,6,7,8-tetrahydro-1,8-naphthyridin-2-yl)ethoxy)-1H-pyrazol-3-yl)butanoic Acid], the pIC50 was 7.33 in experiment [1], 7.92 in experiment [2], 8.60 in experiment [3] and 8.43 in experiment [4].
For the compound `Cn1nc(CC(CC(=O)O)c2cc(Cl)cc(C3(C(F)F)CC3)c2)cc1OCCc1ccc2c(n1)NCCC2` (stereo not drawn) [Example 22, 3-(3-chloro-5-(1-(difluoromethyl)cyclopropyl)phenyl)-4-(1-methyl-5-(2-(5,6,7,8-tetrahydro-1,8-naphthyridin-2-yl)ethoxy)-1H-pyrazol-3-yl)butanoic Acid], the negative logarithm of the IC50 (pIC50) was 7.59 in experiment [1], 8.06 in experiment [2], 8.48 in experiment [3] and 8.66 in experiment [4].
Consider `Cn1nc(CC(CC(=O)O)c2cc(C(F)(F)F)cc(C3(C(F)F)CC3)c2)cc1OCCc1ccc2c(n1)NCCC2` (stereo not drawn) [Example 23, 3-(3-(1-(difluoromethyl)cyclopropyl)-5-(trifluoromethyl)phenyl)-4-(1-methyl-5-(2-(5,6,7,8-tetrahydro-1,8-naphthyridin-2-yl)ethoxy)-1H-pyrazol-3-yl)butanoic Acid], for which the negative logarithm of the IC50 (pIC50) in experiment [1] is 7.42; in experiment [2], 8.06; in experiment [3], 8.12; in experiment [4] it was 8.42.
For the compound `Cn1nc(CC(CC(=O)O)c2cc(F)cc(C(C)(C)C(F)(F)F)c2)cc1OCCc1ccc2c(n1)NCCC2` (stereo not drawn) [Example 24, 3-(3-fluoro-5-(1,1,1-trifluoro-2-methylpropan-2-yl)phenyl)-4-(1-methyl-5-(2-(5,6,7,8-tetrahydro-1,8-naphthyridin-2-yl)ethoxy)-1H-pyrazol-3-yl)butanoic Acid], the pIC50 in experiment [1] was 6.96; in experiment [2] it was 7.82; in experiment [3], 8.35; in experiment [4] it was 8.36.
In the case of `Cn1nc(CC(CC(=O)O)c2cc(C(F)(F)F)cc(C(C)(C)C(F)(F)F)c2)cc1OCCc1ccc2c(n1)NCCC2` (stereo not drawn) [Example 25, 4-[1-methyl-5-[2-(5,6,7,8-tetrahydro-1,8-naphthyridin-2-yl)ethoxy]pyrazol-3-yl]-3-[3-(2,2,2-trifluoro-1,1-dimethylethyl)-5-(trifluoromethyl)phenyl]butanoic Acid], the pIC50 in experiment [1] is 7.60; in experiment [2] it was 7.92; in experiment [3], 8.34; in experiment [4], 8.51.
As for `Cn1nc(CC(CC(=O)O)c2cc(Br)cc(C(C)(C)C(F)(F)F)c2)cc1OCCc1ccc2c(n1)NCCC2` (stereo not drawn) [Example 26, 3-[3-bromo-5-(2,2,2-trifluoro-1,1-dimethyl-ethyl)phenyl]-4-[1-methyl-5-[2-(5,6,7,8-tetrahydro-1,8-naphthyridin-2-yl)ethoxy]pyrazol-3-yl]butanoic Acid], the pIC50 in experiment [1] is 7.35; in experiment [2] it was 7.80; in experiment [3], 8.02; in experiment [4], 8.17.
On to `Cn1nc(CC(CC(=O)O)c2cc(Cl)cc(C(C)(C)C(F)(F)F)c2)cc1OCCc1ccc2c(n1)NCCC2` (stereo not drawn) [Example 27, 3-(3-chloro-5-(1,1,1-trifluoro-2-methylpropan-2-yl)phenyl)-4-(1-methyl-5-(2-(5,6,7,8-tetrahydro-1,8-naphthyridin-2-yl)ethoxy)-1H-pyrazol-3-yl)butanoic Acid], for which the pIC50 in experiment [1] is 7.33; in experiment [2] it was 7.74; in experiment [3], 8.25; in experiment [4], 8.36.
